Test results published in publication PMC2551583, “Optimizing bioavailability of oral administration of small peptides through pharmacokinetic and pharmacodynamic parameters: The effect of water and timing of meal intake on oral delivery of Salmon Calcitonin” (BMC Clinical Pharmacology, 2008).

Assay: Plasma sCT pharmacokinetics after a single dose, phase I crossover study
Type: in vivo, healthy postmenopausal women
Method: The study was a randomized, partially-blind, placebo-controlled, single dose, exploratory crossover study to assess the PK and PD of 0.8 mg SMC021 in healthy postmenopausal women when taken in the morning with different volumes of water (50 or 200 ml) and at different times before a meal (10, 30, or 60 minutes). Subjects were blinded to treatment with SMC021 and placebo, but were not blinded to water volume intake and pre-meal dosing time. The PK and PD profiles of Miacalcic® 200 IU NS were additionally assessed in an open-label manner in a small subset of subjects.
Females fulfilling the inclusion criteria of being generally healthy ambulatory female volunteers, aged between 40–70 years and having passed a natural or surgically-induced menopause at least 5 years before entering the study and being without diseases or medications known to affect bone metabolism were allowed to participate. The study was of a 5-period, 10-treatment, 56-sequence crossover design. Subjects were randomly allocated to a sequence. The study contained 10 possible treatments, comprising a combination of study medication of SMC021, placebo, and Miacalcic® NS), water volume given with the tablet (50/200 ml water, and dosing time to meal (10, 30 or 60 minutes pre-meal) as outlined in Table 1. To reduce the burden of treatment to the subjects, an incomplete cross-over design was used. […]
The concentration of plasma sCT was measured by as chemiluminescence-based assay that previously have been described. Values measured below the lower limit of quantification of 2.5 pg/ml was assigned the value of 2.5 pg/ml. […] The lower limit of quantification (LLOQ) was 2.5 pg/mL. The quality control (QC) samples, ranging from 2.5 pg/mL to 700 pg/mL, were prepared daily and measured in 3 to 5 replicates. The overall accuracy and precision (CV) of QC samples, measured on 11 different days was 101.3% and 10.1% for 2.5 pg/mL concentration and 94.3% and 6.0% for 700 pg/mL concentration, respectively. […]

Which results are given for salmon calcitonin [sCT]?
time to maximum plasma sCT concentration after drug intake (minimal if any effect of water and meal time): approximately 15 minutes; fold sCT AUC0–4 with 50 ml of water versus nasal calcitonin (oral 0.8 mg with 50 ml water vs 200 IU nasal spray): 4 fold; fold higher absorption of sCT with 50 ml as compared with 200 ml of water (oral 0.8 mg, Cmax and AUC0–4, irrespective of meal timing (10, 30, 60 min)): two-fold increase
